Measurements from patent publication US20080249077A1, “17.Beta.-Fluoromethoxycarbonyl-Androst-4-En-3-One Compounds With a 17.Alpha.-Carbonate Sustituent” (priority 2005, published 2008).

Each compound was assayed against T1, glucocorticoid receptor (Homo sapiens, UniProt P04150) (assay: Assay for transactivation activity of the glucocorticoid agonists (MMTV-LTR renilla luciferase reporter in A549 cells)). Conditions: compound 6 hour at 37° C., read-out: maximal response relative to Dexamethasone (100%) (transactivation).
T1 construct: A549 cells stably transfected with a reporter gene; endogenous in cells; host or cells: A549 cells
T1 sequence (P04150 1-777): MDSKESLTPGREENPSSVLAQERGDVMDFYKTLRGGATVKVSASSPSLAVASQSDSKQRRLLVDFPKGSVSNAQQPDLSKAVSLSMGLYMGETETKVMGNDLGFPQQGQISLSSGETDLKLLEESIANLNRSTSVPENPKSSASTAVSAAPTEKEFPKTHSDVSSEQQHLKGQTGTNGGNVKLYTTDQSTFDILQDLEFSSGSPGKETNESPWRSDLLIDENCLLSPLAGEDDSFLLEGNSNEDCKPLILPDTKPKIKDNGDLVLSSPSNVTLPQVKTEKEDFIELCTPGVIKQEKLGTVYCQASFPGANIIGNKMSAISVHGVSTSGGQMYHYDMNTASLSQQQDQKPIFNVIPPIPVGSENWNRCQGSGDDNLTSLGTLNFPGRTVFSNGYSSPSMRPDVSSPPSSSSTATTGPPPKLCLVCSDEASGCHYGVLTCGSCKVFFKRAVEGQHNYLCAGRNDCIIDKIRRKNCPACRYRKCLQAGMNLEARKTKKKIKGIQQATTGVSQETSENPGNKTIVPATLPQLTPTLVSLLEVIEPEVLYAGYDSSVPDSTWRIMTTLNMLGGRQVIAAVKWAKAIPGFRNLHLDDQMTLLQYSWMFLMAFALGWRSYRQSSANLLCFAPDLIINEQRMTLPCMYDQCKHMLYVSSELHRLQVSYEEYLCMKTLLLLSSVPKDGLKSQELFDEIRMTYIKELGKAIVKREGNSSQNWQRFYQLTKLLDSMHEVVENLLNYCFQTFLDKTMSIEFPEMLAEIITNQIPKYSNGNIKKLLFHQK
Assay type: cell-based
Description: Assay for Transactivation Activity of the Glucocorticoid Agonists
The functional assay based on that described by R. J. H. Austin et al., Eur Resp J. (2002), 20, 1386-1392 measures the ability of compounds to directly transactivate gene expression. A549 cells stably transfected with a reporter gene containing the glucocorticoid responsive region of the mouse mammary tumour virus long terminal repeat (MMTV-LTR) coupled to renilla luciferase were treated with test compounds at appropriate doses for 6 hour at 37° C. The amount of luciferase activity present within the cells is then determined by measuring the light emitted following incubation with a suitable substrate. Dose response curves were constructed from which EC50 values were estimated and from which maximal responses are calculated relative to Dexamethasone (100%).

SMILES	Emax [%]
CC[C@H]1CC[C@@H](OC(=O)O[C@]2(C(=O)OCF)[C@H](C)C[C@H]3[C@@H]4C[C@H](F)C5=CC(=O)C=C[C@]5(C)[C@@]4(F)[C@@H](O)C[C@@]32C)CC1 (relative stereo) [Example 36, Fluoromethyl(6α,11β,16α,17α)-17-({[(cis-4-ethylcyclohexyl)oxy]carbonyl}oxy)-6,9-difluoro-11-hydroxy-16-methyl-3-oxoandrosta-1,4-diene-17-carboxylate]	< 25
CC[C@H]1CC[C@H](OC(=O)O[C@]2(C(=O)OCF)[C@H](C)C[C@H]3[C@@H]4C[C@H](F)C5=CC(=O)C=C[C@]5(C)[C@@]4(F)[C@@H](O)C[C@@]32C)CC1 (relative stereo) [Example 37, Fluoromethyl(6α,11β,16α,17α)-17-({[(trans-4-ethylcyclohexyl)oxy]carbonyl}oxy)-6,9-difluoro-11-hydroxy-16-methyl-3-oxoandrosta-1,4-diene-17-carboxylate]	< 25
CCC(CC)OC(=O)O[C@]1(C(=O)OCF)[C@H](C)C[C@H]2[C@@H]3C[C@H](F)C4=CC(=O)C=C[C@]4(C)[C@@]3(F)[C@@H](O)C[C@@]21C [Example 4, Fluoromethyl(6α,11β,16α,17α)-17-({[(1-ethylpropyl)oxy]carbonyl}oxy)-6,9-difluoro-11-hydroxy-16-methyl-3-oxoandrosta-1,4-diene-17-carboxylate]	< 25
C[C@@H]1C[C@H]2[C@@H]3C[C@H](F)C4=CC(=O)C=C[C@]4(C)[C@@]3(F)[C@@H](O)C[C@]2(C)[C@@]1(OC(=O)OCC(C)(C)C)C(=O)OCF [Example 7, Fluoromethyl(6α,11β,16α,17α)-17-({[(2,2-dimethylpropyl)oxy]carbonyl}oxy)-6,9-difluoro-11-hydroxy-16-methyl-3-oxoandrosta-1,4-diene-17-carboxylate]	< 25
CC1CCCCC1OC(=O)OC1(C(=O)OCF)C(C)CC2C3CC(F)C4=CC(=O)C=CC4(C)C3(F)C(O)CC21C (stereo not drawn) [Example 10, Fluoromethyl(6α,11β,16α,17α)-6,9-difluoro-11-hydroxy-16-methyl-17-[({[(1SR,2RS)-2-methylcyclohexyl]oxy}carbonyl)oxy]-3-oxoandrosta-1,4-diene-17-carboxylate]	< 25
CC(C)C1CCC(OC(=O)O[C@]2(C(=O)OCF)[C@H](C)C[C@H]3[C@@H]4C[C@H](F)C5=CC(=O)C=C[C@]5(C)[C@@]4(F)[C@@H](O)C[C@@]32C)CC1 (stereo partly drawn) [Example 11, Fluoromethyl(6α,11β,16α,17α)-6,9-difluoro-11-hydroxy-16-methyl-17-[({[4-(1-methylethyl)cyclohexyl]oxy}carbonyl)oxy]-3-oxoandrosta-1,4-diene-17-carboxylate]	< 25
CC1CC2C3CC(F)C4=CC(=O)C=CC4(C)C3(F)C(O)CC2(C)C1(OC(=O)OC1CC2CCC1C2)C(=O)OCF (stereo not drawn) [Example 12, Fluoromethyl(6α,11β,16α,17α)-17-({[(1RS,2RS,4SR)-bicyclo[2.2.1]hept-2-yloxy]carbonyl}oxy)-6,9-difluoro-11-hydroxy-16-methyl-3-oxoandrosta-1,4-diene-17-carboxylate]	< 25
C[C@@H]1C[C@H]2[C@@H]3C[C@H](F)C4=CC(=O)C=C[C@]4(C)[C@@]3(F)[C@@H](O)C[C@]2(C)[C@@]1(OC(=O)OC1CCCCCCC1)C(=O)OCF [Example 16, Fluoromethyl(6α,11β,16α,17α)-17-{[(cyclooctyloxy)carbonyl]oxy}-6,9-difluoro-11-hydroxy-16-methyl-3-oxoandrosta-1,4-diene-17-carboxylate]	< 25
C[C@@H]1C[C@H](C)C[C@H](OC(=O)O[C@]2(C(=O)OCF)[C@H](C)C[C@H]3[C@@H]4C[C@H](F)C5=CC(=O)C=C[C@]5(C)[C@@]4(F)[C@@H](O)C[C@@]32C)C1 [Example 17, Fluoromethyl(6α,11β,16α,17α)-17-[({[(1S,3R,5S)-3,5-dimethylcyclohexyl]oxy}carbonyl)oxy]-6,9-difluoro-11-hydroxy-16-methyl-3-oxoandrosta-1,4-diene-17-carboxylate]	< 25
COC1CCCCC1OC(=O)OC1(C(=O)OCF)C(C)CC2C3CC(F)C4=CC(=O)C=CC4(C)C3(F)C(O)CC21C (stereo not drawn) [Example 18, Fluoromethyl(6α,11β,16α,17α)-6,9-difluoro-11-hydroxy-16-methyl-17-[({[(1RS,2RS)-2-(methyloxy)cyclohexyl]oxy}carbonyl)oxy]-3-oxoandrosta-1,4-diene-17-carboxylate]	< 25
C[C@@H]1C[C@H]2[C@@H]3C[C@H](F)C4=CC(=O)C=C[C@]4(C)[C@@]3(F)[C@@H](O)C[C@]2(C)[C@@]1(OC(=O)OC1CCCC(C)(C)C1)C(=O)OCF (stereo partly drawn) [Example 19, Fluoromethyl(6α,11β,16α,17α)-17-({[(3,3-dimethylcyclohexyl)oxy]carbonyl}oxy)-6,9-difluoro-11-hydroxy-16-methyl-3-oxoandrosta-1,4-diene-17-carboxylate]	< 25
CCC(OC(=O)O[C@]1(C(=O)OCF)[C@H](C)C[C@H]2[C@@H]3C[C@H](F)C4=CC(=O)C=C[C@]4(C)[C@@]3(F)[C@@H](O)C[C@@]21C)C1CCCC1 (stereo partly drawn) [Example 20, Fluoromethyl(6α,11β,16α,17α)-17-({[(1-cyclopentylpropyl)oxy]carbonyl}oxy)-6,9-difluoro-11-hydroxy-16-methyl-3-oxoandrosta-1,4-diene-17-carboxylate]	< 25
CC(OC(=O)O[C@]1(C(=O)OCF)[C@H](C)C[C@H]2[C@@H]3C[C@H](F)C4=CC(=O)C=C[C@]4(C)[C@@]3(F)[C@@H](O)C[C@@]21C)C1CCCC1 (stereo partly drawn) [Example 21, Fluoromethyl(6α,11β,16α,17α)-17-({[(1-cyclopentylethyl)oxy]carbonyl}oxy)-6,9-difluoro-11-hydroxy-16-methyl-3-oxoandrosta-1,4-diene-17-carboxylate]	< 25
CCCC(CCC)OC(=O)O[C@]1(C(=O)OCF)[C@H](C)C[C@H]2[C@@H]3C[C@H](F)C4=CC(=O)C=C[C@]4(C)[C@@]3(F)[C@@H](O)C[C@@]21C [Example 22, Fluoromethyl(6α,11β,16α,17α)-6,9-difluoro-11-hydroxy-16-methyl-3-oxo-17-({[(1-propylbutyl)oxy]carbonyl}oxy)androsta-1,4-diene-17-carboxylate]	< 25
CC(OC(=O)O[C@]1(C(=O)OCF)[C@H](C)C[C@H]2[C@@H]3C[C@H](F)C4=CC(=O)C=C[C@]4(C)[C@@]3(F)[C@@H](O)C[C@@]21C)C(C)(C)C (stereo partly drawn) [Example 23, Fluoromethyl(6α,11β,16α,17α)-6,9-difluoro-11-hydroxy-16-methyl-3-oxo-17-({[(1,2,2-trimethylpropyl)oxy]carbonyl}oxy)androsta-14-diene-17-carboxylate]	< 25
C[C@@H]1C[C@H]2[C@@H]3C[C@H](F)C4=CC(=O)C=C[C@]4(C)[C@@]3(F)[C@@H](O)C[C@]2(C)[C@@]1(OC(=O)OCC1C(C)(C)C1(C)C)C(=O)OCF [Example 24, Fluoromethyl(6α,11β,16α,17α)-6,9-difluoro-11-hydroxy-16-methyl-3-oxo-17-[({[(2,2,3,3-tetramethylcyclopropyl)methyl]oxy}carbonyl)oxy]androsta-1,4-diene-17-carboxylate]	< 25
